Laboratory results published in patent US9738613B2, “Substituted 1,2,3-triazoles as antitumor agents” (National Central University, priority 2015, dated 2017).
Structures can show the parent of a compound that is named as a salt. Where two headings read alike, the source gives them in different places.

Experiments:
DU-145 cells = test: Sulforhodamine B (SRB) growth inhibition assay, DU-145 cells; type: cell-based, Human
Procedure: (§1) Human hormone-refractory prostate cancer cell lines PC-3 and DU-145 were from American Type Culture Collection (Rockville, MD). Cells were cultured in RPMI 1640 medium with 10% FBS (v/v) and penicillin (100 U/ml)/streptomycin (100 μg/ml). Cultures were maintained in a humidified incubator at 37° C. in 5% CO2/95% air.
(§2) Cells were seeded in 96-well plates in medium with 5% FBS. After 24 hours, cells were fixed with 10% TCA to represent cell population at the time of drug addition (T0). After additional incubation of DMSO or the compound for 48 hours (PC-3 cells) or 72 hours (DU145 cells), cells were fixed with 10% TCA and SRB at 0.4% (w/v) in 1% acetic acid was added to stain cells. Unbound SRB was washed out by 1% acetic acid and SRB bound cells were solubilized with 10 mM Trizma base. The absorbance was read at a wavelength of 515 nm. Using the following absorbance measurements, such as time zero (T0), control growth (C), and cell growth in the presence of the compound (Tx), the percentage growth was calculated at each of the compound concentrations levels. Percentage growth inhibition was calculated as: [1−(Tx−T0)/(C−T0)]×100%. Growth inhibition of 50% (IC50) is determined at the compound concentration which results in 50% reduction of total protein increase in control cells during the compound incubation. Data are expressed as mean±SEM of three to five determinations.

PC-3 cells = test: Sulforhodamine B (SRB) growth inhibition assay, PC-3 cells; type: cell-based, Human
Procedure: as §1, §2

[1] = human hormone-refractory prostate cancer DU-145 cells, 72 hours incubation, read-out: DU-145 cells IC50
[2] = human hormone-refractory prostate cancer PC-3 cells, 48 hours incubation, read-out: PC-3 cells IC50
[3] = Homo sapiens, DU-145 cells, 72 hours, bound stated, read-out: IC50 in DU-145 cells (text summary of Table 1)
[4] = Homo sapiens, PC-3 cells, 48 hours, bound stated, read-out: IC50 in PC-3 cells (text summary of Table 1)

| Compound | IC50 (DU-145 cells; [1]) | IC50 (PC-3 cells; [2]) | IC50 (DU-145 cells; [3]) | IC50 (PC-3 cells; [4]) |
| --- | --- | --- | --- | --- |
| 2-Amino-2-(4-(1-tetradecyl-1H-1,2,3-triazol-4-yl)butyl)propane-1,3-diol hydrochloride [Compound 10] | 6.2 µM | 8.97 µM | – | – |
| 2-Amino-2-((1-pentadecyl-1H-1,2,3-triazol-4-yOmethyl)propane-1,3-diol hydrochloride [Compound 5] | – | 3.5 µM | – | – |
| CCCCCCCCCCCCCCn1cc(CC(N)(CO)CO)nn1 [Compound 1, 2-Amino-2-((1-tetradecyl-1H-1,2 ,3-triazol-4-yl)methyl)propane-1,3-diol hydrochloride] | 4.7 µM | 4.9 µM | < 5 µM | < 5 µM |
| CCCCCCCCCCCCCCCCn1cc(CC(N)(CO)CO)nn1 [Compound 2, 2-Amino-2-((1-hexadecyl-1H-1,2,3-triazol-4-yl)methyl)propane-1,3-diol hydrochloride] | 5.3 µM | 3.3 µM | < 10 µM | < 5 µM |
| CCCCCCCCCCCCCCCCCCn1cc(CC(N)(CO)CO)nn1 [Compound 3, 2-Amino-2-((1-octadecyl-1H-1,2,3-triazol-4-yl)methyl)propane-1,3-diol hydrochloride] | 5.7 µM | 4.5 µM | < 10 µM | < 5 µM |
| CCCCCCCCCCCCCCCCCCn1cc(CCC(N)(CO)CO)nn1 [Compound 4, 2-Amino-2-(2-(1-octadecyl-1H-1,2,3-triazol-4-yl)ethyl)propane-1,3-diol hydrochloride] | 2.4 µM | 3.6 µM | < 5 µM | < 5 µM |
| CCCCCCCCCCCCCCCCn1cc(CCC(N)(CO)CO)nn1 [Compound 6, 2-Amino-2-(2-(1-hexadecyl-1H-1,2,3-triazol-4-yl)ethyl)propane-1,3-diol hydrochloride] | – | 6.2 µM | – | < 10 µM |
| CCCCCCCCCCCCCCCCCCn1cc(CC(N)(C(=O)OCC)C(=O)OCC)nn1 [Compound 7, Diethyl 2-amino-2-((1-octadecyl-1H-1,2,3-triazol-4-yl)methyl)malonate hydrochloride] | > 10 µM | 7.9 µM | – | < 10 µM |
| CCCCCCCCCCCCCCCCCCCCn1cc(CC(N)(CO)CO)nn1 [Compound 8, 2-Amino-2-((1-icosyl-1H-1,2,3-triazol-4-yl)methyl)propane-1,3-diol hydrochloride] | 6.2 µM | 3.8 µM | < 10 µM | < 5 µM |
| CCCCCCCCCCCCCCn1cc(CCCC(N)(CO)CO)nn1 [Compound 9, 2-Amino-2-(3-(1-tetradecyl-1H-1,2,3-triazol-4-yl)propyl)propane-1,3-diol hydrochloride] | 5.4 µM | 4.2 µM | < 10 µM | < 5 µM |
| CCCCCCCCCCCCCn1cc(CC(N)(CO)CO)nn1 [Compound 11, 2-Amino-2-((1-tridecyl-1H-1,2,3-triazol-4-yl)methyl)propane-1,3-diol hydrochloride] | 4.2 µM | 5.31 µM | < 5 µM | < 10 µM |
| CCCCCCCCCCCCCCCCCCCCn1cc(CC(CO)(COC)NC)nn1 (stereo not shown) [Compound 12, 3-(1-Icosyl-1H-1,2,3-triazol-4-yl)-2-(methoxymethyl)-2-(methylamino)propan-1-ol] | 4.68 µM | 2.99 µM | < 5 µM | < 5 µM |
